The results in this text go back to patent publication US8008291B2 (Mimetica Pty Ltd, priority 2008, dated 2011).

Molecules are shown by their SMILES.

T1 sequence (P33032 whole entry): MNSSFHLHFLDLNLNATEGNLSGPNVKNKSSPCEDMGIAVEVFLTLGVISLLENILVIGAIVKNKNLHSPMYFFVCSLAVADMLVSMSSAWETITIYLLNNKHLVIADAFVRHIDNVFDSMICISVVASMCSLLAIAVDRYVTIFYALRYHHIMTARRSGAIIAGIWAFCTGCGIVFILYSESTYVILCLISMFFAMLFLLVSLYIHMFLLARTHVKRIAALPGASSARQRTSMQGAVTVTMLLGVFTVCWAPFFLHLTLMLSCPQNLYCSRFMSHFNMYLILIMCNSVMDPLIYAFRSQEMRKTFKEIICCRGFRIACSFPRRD

This assay concerns the target T1, human MC5R (hMC5R) (Homo sapiens, UniProt P33032).
T1 construct: purchased Perkin Elmer RBXMC5M400UA
As to the kind of experiment: Human MC5R radioligand binding assay (membranes, [125I] NDP-MSH displacement). To be noted: hMC5R binding; tested as trifluoroacetate or hydrochloride salts, or free bases; read-out: MC5R radioligand IC50. The protocol: Assessments of compound binding to human MC5R (hMC5R) ) by displacement of an ^125I-labeled NDP-MSH receptor ligand peptide were performed essentially as described in the data sheets produced by Perkin Elmer to accompany their frozen hMC5R membranes (Perkin Elmer catalog number RBXMC5M400UA).
[^125I] NDP-MSH: radiolabeled in house and purified by HPLC:
• Na^125I (0.5 mCi, 17.4 Ci/mg) was added to 50 μL sodium phosphate (50 mM, pH7.4) in an eppendorf tube precoated with IODOGEN. After incubation for 10 mins the phosphate buffer containing the iodine was added to NDP-MSH (10 ul at 1 mg/mL) in a separate eppendorf tube. This was incubated for a further 10 mins. The iodinated NDP-MSH was purified by HPLC on a Zorbax SB 300 column using solvent A: 0.05% TFA and solvent B: 90% acetonitrile 0.045% TFA with a linear gradient, 0-67% B over 60 mins. […] Resuspended membranes were kept on ice until they were added to the wells of the plate. Binding Protocol for 400 microassays per vial: • Assays were performed in 96 well polypropylene plates. […] This was incubated for 1 hr at 37° C.
With `N=C(N)NCCC[C@@H]1N[C@H](CNC(=O)c2ccc3ccccc3c2)CCN(Cc2cc(Cl)cc(Cl)c2)C1=O` [Compound 14, N-(((3S,5S)-1-(3,5-dichlorobenzyl)-3-(3-guanidinopropyl)-2-oxo-1,4-diazepan-5-yl)methyl)-2-naphthamide], the IC50 was < 100 nM. The value for `CC[C@H](CN1CC[C@@H](CNC(=O)c2ccc3ccccc3c2)N[C@@H](CCN2CCCCC2)C1=O)c1ccccc1` [Compound 38, N-(((3S,5S)-2-oxo-1-((S)-2-phenylbutyl)-3-(2-(piperidin-1-yl)ethyl)-1,4-diazepan-5-yl)methyl)-2-naphthamide] was < 100 nM.

As for `CC[C@@H](CN1CC[C@@H](CNC(=O)c2ccc3ccccc3c2)N[C@@H](CCN2CCCCC2)C1=O)c1ccccc1` [Compound 39, N-(((3S,5S)-2-oxo-1-((R)-2-phenylbutyl)-3-(2-(piperidin-1-yl)ethyl)-1,4-diazepan-5-yl)methyl)-2-naphthamide], the IC50 was < 100 nM. The value for `CC(=O)N[C@@H](Cc1ccc2ccccc2c1)[C@@H]1CCN(CC(c2ccccc2)c2ccccc2)C(=O)[C@H](CCCNC(=N)N)N1` [Compound 79, N-((S)-1-((3S,5S)-1-(2,2-diphenylethyl)-3-(3-guanidinopropyl)-2-oxo-1,4-diazepan-5-yl)-2-(naphthalen-2-yl)ethyl)acetamide] was < 10000 nM; that for `CC(=O)N[C@@H](Cc1cnc[nH]1)C(=O)N[C@@H](Cc1ccc2ccccc2c1)[C@@H]1CCN(CC(c2ccccc2)c2ccccc2)C(=O)[C@H](CCCNC(=N)N)N1` [Compound 81, (S)-2-acetamido-N-((S)-1-((3S,5S)-1-(2,2-diphenylethyl)-3-(3-guanidinopropyl)-2-oxo-1,4-diazepan-5-yl)-2-(naphthalen-2-yl)ethyl)-3-(1H-imidazol-5-yl)propanamide] was < 1000 nM; that for `CCCOC(=O)N[C@@H](Cc1ccc2ccccc2c1)[C@@H]1CCN(CC(c2ccccc2)c2ccccc2)C(=O)[C@H](CCCNC(=N)N)N1` [Compound 83, propyl (S)-1-((3S,5S)-1-(2,2-diphenylethyl)-3-(3-guanidinopropyl)-2-oxo-1,4-diazepan-5-yl)-2-(naphthalen-2-yl)ethylcarbamate] was < 1000 nM. The value for `CC(=O)N[C@H](Cc1ccc2ccccc2c1)[C@@H]1CCN(CC(c2ccccc2)c2ccccc2)C(=O)[C@H](CCCNC(=N)N)N1` [Compound 85, N—((R)-1-((3S,5S)-1-(2,2-diphenylethyl)-3-(3-guanidinopropyl)-2-oxo-1,4-diazepan-5-yl)-2-(naphthalen-2-yl)ethyl)acetamide] was < 10000 nM. The value for `CC(=O)N[C@@H](Cc1c[nH]cn1)C(=O)N[C@H](Cc1ccc2ccccc2c1)[C@@H]1CCN(CC(c2ccccc2)c2ccccc2)C(=O)[C@H](CCCNC(=N)N)N1` [Compound 86, (S)-2-acetamido-N—((R)-1-((3S,5S)-1-(2,2-diphenylethyl)-3-(3-guanidinopropyl)-2-oxo-1,4-diazepan-5-yl)-2-(naphthalen-2-yl)ethyl)-3-(1H-imidazol-4-yl)propanamide] was < 1000 nM; that for `CCCOC(=O)N[C@H](Cc1ccc2ccccc2c1)[C@@H]1CCN(CC(c2ccccc2)c2ccccc2)C(=O)[C@H](CCCNC(=N)N)N1` [Compound 87, propyl (R)-1-((3S,5S)-1-(2,2-diphenylethyl)-3-(3-guanidinopropyl)-2-oxo-1,4-diazepan-5-yl)-2-(naphthalen-2-yl)ethylcarbamate] was < 10000 nM; that for `NCCC[C@@H]1N[C@H](CNC(=O)c2ccc(-c3ccccc3)cc2)CCN(CC(c2ccccc2)c2ccccc2)C1=O` [Compound 106, N-(((3S,5S)-3-(3-aminopropyl)-1-(2,2-diphenylethyl)-2-oxo-1,4-diazepan-5-yl)methyl)biphenyl-4-carboxamide] was < 1000 nM. Take `NCCC[C@@H]1N[C@H](CNC(=O)c2cc3ccccc3[nH]2)CCN(CC(c2ccccc2)c2ccccc2)C1=O` [Compound 107, N-(((3S,5S)-3-(3-aminopropyl)-1-(2,2-diphenylethyl)-2-oxo-1,4-diazepan-5-yl)methyl)-1H-indole-2-carboxamide]: the IC50 is < 1000 nM.
